Experimental data published in patent US7592467B2, “Inhibitors of prolyl endopeptidase” (Probiodrug AG, priority 2005, dated 2009).

Experiments:
[1] = molecular target: T1, Recombinant human prolyl oligopeptidase (Homo sapiens, UniProt P48147); experiment: Determination of IC50- and Ki-values of PEP-inhibitors (chromogenic substrate Z-Gly-Pro-pNA); assay type: biochemical; conditions: substrate Z-Gly-Pro-pNA 0.15 mM, HEPES buffer pH 7.6, 30° C.; n.i. = no inhibition
T1 construct: made in house; host or cells: E. coli
T1 sequence (P48147 1-710): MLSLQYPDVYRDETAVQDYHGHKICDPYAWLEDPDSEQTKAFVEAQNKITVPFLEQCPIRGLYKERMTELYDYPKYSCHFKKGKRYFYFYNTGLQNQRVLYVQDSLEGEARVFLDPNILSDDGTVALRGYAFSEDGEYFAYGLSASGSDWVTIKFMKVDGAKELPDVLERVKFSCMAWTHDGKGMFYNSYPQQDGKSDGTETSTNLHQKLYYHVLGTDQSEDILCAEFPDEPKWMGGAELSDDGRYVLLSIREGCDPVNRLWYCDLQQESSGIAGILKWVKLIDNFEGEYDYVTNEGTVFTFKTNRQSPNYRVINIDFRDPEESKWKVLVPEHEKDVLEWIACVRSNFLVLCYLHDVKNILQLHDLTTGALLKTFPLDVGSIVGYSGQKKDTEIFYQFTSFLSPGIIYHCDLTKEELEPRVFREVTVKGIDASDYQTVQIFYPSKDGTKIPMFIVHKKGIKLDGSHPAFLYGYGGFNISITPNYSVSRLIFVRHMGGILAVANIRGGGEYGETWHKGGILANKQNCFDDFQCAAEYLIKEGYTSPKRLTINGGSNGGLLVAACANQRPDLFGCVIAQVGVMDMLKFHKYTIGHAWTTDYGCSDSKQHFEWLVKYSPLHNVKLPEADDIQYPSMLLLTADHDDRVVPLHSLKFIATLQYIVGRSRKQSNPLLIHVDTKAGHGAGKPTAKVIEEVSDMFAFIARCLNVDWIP
Experimental: Biological Evaluation, Determination of IC50- and Ki-Values of PEP-Inhibitors
Recombinant human prolyl oligopeptidase was used for measurement. Recombinant expression was performed in E. coli under standard conditions as described elsewhere in the state of the art.
For activity measurements the chromogenic substrate Z-Gly-Pro-pNA was used in HEPES buffer pH 7.6 containing 50 mM HEPES, 200 mM NaCl, 1 mM EDTA, 1 mM DTT, 0.006% Brij35. Measurements were carried out at 30° C. Release of pNA were monitored continuously at 405 nm.
IC50 values were calculated using non-linear regression to a 4-parameter equation (Prism 4.0, GraphPad).
For Ki determination 4 substrate (0.15 mM, 0.08 mM 0.04 mM, 0.02 mM) and 7 inhibitor concentrations in an appropriate range were used. Calculations were performed by multiple non-linear regression analysis to the equation for competitive inhibition using GraFit 5.0 Software (Erithacus Software).

human glial U-343 cells = experiment: IL-6 ELISA, basal secretion of IL-6; assay type: cell-based; conditions: inhibitor 20 μM, 24 hours, serum-free medium, untreated control = 100%, read-out: Extracellular IL-6 concentration, % of untreated cells
Experimental: To analyze basal secretion of IL-6, human glial U-343 cells were cultured in 6 well plates (1.5×10^6 cells/well, Greiner) and treated with specific PEP inhibitors as indicated (20 μM each) for 24 hours in serum-free D-MEM medium (invitrogen). Aliquots of 40 μl conditioned medium were used to quantify the amount of secreted IL-6 by an human-specific IL-6 ELISA (Biosource) following the manufacturer's instructions. All data were obtained in quadruplicate. For the calculation of the IL-6 concentration in the cell culture medium after PEP-inhibitor treatment, the basal IL-6 concentration of the cell culture medium of untreated cell samples was set to 100%. The results of the measurement of the IL-6 concentration with PEP-inhibitor treated cells are presented as % of the untreated cell samples.

U-343 and SH-SY5Y cells = experiment: β-Amyloid ELISA, secreted β-amyloid peptides 1-40 and 1-42; assay type: cell-based; conditions: Homo sapiens, inhibitor 20 μM, 24 hours, conditioned medium, untreated cells = 100%, cell line and peptide (1-40/1-42) not given, read-out: Extracellular Aβ-concentration, % of control
Experimental: The human glioma cell line, U-343 and the human neuroblastoma cell line, SH-SY5Y were maintained in Dulbecco's modified Eagle's medium (DMEM) containing 10% fetal bovine serum (Gibco BRL, Karlsruhe, Germany) and incubated at 37° C. in a 5% CO2 atmosphere. Culture media contained in general 60 μg/ml gentamycin (Gibco BRL, Karlsruhe, Germany).
To quantify intracellular and extracellular concentrations of 0-amyloid peptides, 1-40 and 1-42, U-343 and SH-SY5Y cells were cultured in 6 well plates (1.5×10^6 cells/well) and treated with specific PEP inhibitors (20 μM each) for 24 hours. For quantitation of secreted β-amyloid peptides the conditioned medium was collected and concentrated by lyophylisation. Likewise, after determination of the cell numbers/well (casy cell counter I, Schärfe System, Reutlingen, Germany), cells were lyzed with cell extraction buffer (Biosource, Solingen, Germany) according to the manufacturer's protocol. The protein concentration was determined by the method of Bradford (1976). Aliquots of 100 μl were used to quantify β-amyloid peptides 1-40 and 1-42 in quadruplicate by ELISA (IBL, Hamburg, Germany) following the manufacturer's instructions. All obtained intracellular and extracellular concentrations were normalized to cell numbers and protein concentration, respectively.
For the calculation of the concentration of β-amyloid peptides 1-40 and 1-42 in the cell culture medium after PEP-inhibitor treatment, the basal concentration of β-amyloid peptides 1-40 and 1-42 in the cell culture medium of untreated cell samples was set to 100%. The results of the measurement of the concentration of β-amyloid peptides 1-40 and 1-42 with PEP-inhibitor treated cells are presented as % of the untreated cell samples.

IC50 [1] | SMILES | activity at 20 µM (human glial U-343 cells) [%] | activity at 20 µM (U-343 and SH-SY5Y cells) [%]
n.i. | O=C(OCN1C(=O)c2ccccc2C1=O)c1ccccc1C(=O)c1cccs1 [Example 9] | 124 | 113
n.i. | COc1cccc(COC(=O)c2ccccc2C(=O)c2cccs2)c1 [Example 18] | 63.3 | 106
